Results taken from ChEMBL document CHEMBL5029183 (J Med Chem, 2021).
Calls of active or inactive are those of the source.

How the values were obtained:
Mu-type opioid receptor [1] = target: Mu-type opioid receptor (Rattus norvegicus, UniProt P33535); experiment: Displacement of [3H]DAMGO from MOR in Wistar rat brain membranes measured after 1 hr by scintillation counting method; type: cell membranes, Membrane
[2] = target: Delta-type opioid receptor (Rattus norvegicus, UniProt P33533); experiment: Displacement of [3H]DPDPE from DOR in Wistar rat brain membranes measured after 3 hrs by scintillation counting method; type: cell membranes, Membrane
Rattus norvegicus [3] = species on record: Rattus norvegicus; experiment: Selectivity index, ratio of Ki for displacement of [3H]DPDPE from DOR in Wistar rat brain membranes to Ki for displacement of [3H]DAMGO from MOR in Wistar rat brain membranes; type: cell membranes
Rattus norvegicus [4] = species on record: Rattus norvegicus; experiment: Selectivity index, ratio of Ki for displacement of [3H]-U69593 from KOR in Wistar rat brain membranes to Ki for displacement of [3H]DAMGO from MOR in Wistar rat brain membranes; type: cell membranes
Ileum = experiment: Inhibition of electric-field induced guinea pig ileum contraction; type: functional, tissue-based; conditions: Cavia porcellus
Vas deferens = experiment: Inhibition of electric-field induced mouse vas deferens contraction; type: functional, tissue-based
Mu-type opioid receptor [5] = target: T1, Mu-type opioid receptor (Homo sapiens, UniProt P35372); experiment: Agonist activity at mu-opioid receptor (unknown origin) expressed in HEK293 cells assessed as inhibition of forskolin-induced cAMP accumulation incubated for 15 mins by ELISA; type: functional, cell-based
Mu-type opioid receptor [6] = target: T1, Mu-type opioid receptor; experiment: Agonist activity at mu-opioid receptor (unknown origin) expressed in HEK293 cells assessed as inhibition of forskolin-induced cAMP accumulation incubated for 15 mins by ELISA relative to control; type: functional, cell-based; conditions: filed as agonist
[7] = target: Delta-type opioid receptor (Homo sapiens) (UniProt P41143); experiment: Agonist activity at delta-opioid receptor (unknown origin) expressed in HEK293 cells assessed as inhibition of forskolin-induced cAMP accumulation incubated for 15 mins by ELISA; type: functional, cell-based
[8] = target: Kappa-type opioid receptor (Homo sapiens) (UniProt P41145); experiment: Agonist activity at kappa-opioid receptor (unknown origin) expressed in HEK293 cells assessed as inhibition of forskolin-induced cAMP accumulation incubated for 15 mins by ELISA; type: functional, cell-based
[9] = Metabolic stability in Kunming mouse brain assessed as half life measured upto 480 mins by RP-HPLC analysis; type: ADME, tissue-based
[10] = Metabolic stability in Kunming mouse serum assessed as half life measured upto 480 mins by RP-HPLC analysis; type: ADME, cell-free
Mus musculus [11] = experiment: Antinociceptive activity in icv dosed Kunming mouse model assessed as increase in paw withdrawal latency by radiant heat paw withdrawal assay; type: functional; conditions: dose 0.67-20 nmol
Mus musculus [12] = experiment: Antinociceptive activity in Kunming mouse model assessed as increase in paw withdrawal latency at 0.67 to 20 nmol, icv by radiant heat paw withdrawal assay; type: functional, organism-based; conditions: dose 0.67-20 nmol, TDE = time-dependent effect
Mus musculus [13] = experiment: Antinociceptive activity in Kunming mouse model assessed as increase in paw withdrawal latency at 0.67 to 20 nmol, icv measured after 5 mins by radiant heat paw withdrawal assay; type: functional, organism-based; conditions: dose 0.67-20 nmol
Mus musculus [14] = experiment: Antinociceptive activity in Kunming mouse model assessed as increase in paw withdrawal latency at 0.67 to 20 nmol, icv measured after 20 mins by radiant heat paw withdrawal assay; type: functional, organism-based; conditions: dose 0.67-20 nmol
Mus musculus [15] = experiment: Antinociceptive activity in Kunming mouse model assessed as increase in paw withdrawal latency at 20 nmol, icv pretreated for 10 mins with naloxone followed by compound addition and measured upto 10 mins by radiant heat paw withdrawal assay; type: functional, organism-based; conditions: time min <=10
Mus musculus [16] = experiment: Antinociceptive activity in Kunming mouse model assessed as increase in paw withdrawal latency at 20 nmol, icv pretreated for 4 hrs with beta-FNA followed by compound addition and measured upto 10 mins by radiant heat paw withdrawal assay; type: functional, organism-based; conditions: time min <=10
Mus musculus [17] = experiment: Antinociceptive activity in Kunming mouse model assessed as increase in paw withdrawal latency at 20 nmol, icv pretreated for 20 mins with naloxonazine followed by compound addition and measured upto 10 mins by radiant heat paw withdrawal assay; type: functional, organism-based; conditions: time min <=10
Mus musculus [18] = experiment: Antinociceptive activity in Kunming mouse model assessed as increase in paw withdrawal latency at 20 nmol, icv pretreated for 30 mins with nor-BNI followed by compound addition and measured upto 10 mins by radiant heat paw withdrawal assay; type: functional, organism-based; conditions: time min <=10
Mus musculus [19] = experiment: Antinociceptive activity in Kunming mouse model assessed as increase in paw withdrawal latency at 10 micromol/kg, sc by radiant heat paw withdrawal assay; type: functional, organism-based; conditions: dose 10.0 µmol/kg
Mus musculus [20] = experiment: Chronic antinociceptive tolerance in Kunming mouse pretreated with compound followed by repeated compound addition at 20 nmol, icv once daily for 7 days and measured after 5 mins by radiant heat paw withdrawal test; type: functional, organism-based; conditions: time 7.0 day
[21] = Toxicity in icv dosed Kunming mouse assessed as inhibition of gastrointestinal transit by measuring charcoal distance travel by charcoal meal test; type: organism-based; conditions: in vivo, icv_or_intrathecal, dose 0.67-6.7 nmol
[22] = Toxicity in Kunming mouse assessed as inhibition of gastrointestinal transit at 10 micromol/kg, sc by charcoal meal test (reference value: 70.3 +/- 3 %); type: organism-based; parameters: scale not given: the % may be the effect or the level left; conditions: in vivo
[23] = Toxicity in Kunming mouse model assessed as conditioned place preference time at 20 nmol, icv; conditions: in vivo, icv_or_intrathecal
[24] = Toxicity in Kunming mouse model assessed as conditioned place preference time at 10 micromol/kg, sc; conditions: in vivo, dose 10 µmol/kg
Mus musculus [25] = experiment: Chronic antinociceptive tolerance in Kunming mouse pretreated with compound followed by repeated compound addition at 10 micromol/kg, sc once daily for 7 days and measured after 20 mins by radiant heat paw withdrawal test; type: functional, organism-based; conditions: dose 10.0 µmol/kg, time 7.0 day
Mus musculus [26] = experiment: Antinociceptive activity in Kunming mouse model assessed as maximum possible effect at 10 micromol/kg, sc by radiant heat paw withdrawal assay; type: functional; conditions: dose 10 µmol/kg
Mus musculus [27] = experiment: Antiallodynic activity in Kunming mouse model of spared nerve injury-induced neuropathic pain assessed as increase in paw withdrawal threshold at 10 micromol/kg, sc measured at 20 to 50 mins by von Frey test; type: functional, organism-based; conditions: dose 10.0 µmol/kg, time 20-50 min
Mus musculus [28] = experiment: Chronic antinociceptive tolerance in Kunming mouse pretreated with compound followed by repeated compound addition at 20 nmol, icv once daily for 7 days and measured after 15 mins by radiant heat paw withdrawal test; type: functional, organism-based; conditions: time 7.0 day
[29] = Toxicity in Kunming mouse assessed as effect on motor coordination at 20 nmol, icv by rotarod test; conditions: in vivo, icv_or_intrathecal
[30] = Toxicity in Kunming mouse assessed as effect on motor coordination at 10 micromol/kg, sc by rotarod test; type: organism-based; conditions: in vivo, dose 10 µmol/kg
Mus musculus [31] = species on record: Mus musculus; experiment: Antinociceptive tolerance in Kunming mouse pretreated with saline for 2 hrs followed by compound addition by radiant heat paw withdrawal test; type: functional
Mus musculus [32] = species on record: Mus musculus; experiment: Antinociceptive tolerance in Kunming mouse pretreated with 3 times ED50 of compound for 2 hrs followed by challenge with second dose of compound by radiant heat paw withdrawal test; type: functional

Chain of Delta-type opioid receptor (P33533 whole entry): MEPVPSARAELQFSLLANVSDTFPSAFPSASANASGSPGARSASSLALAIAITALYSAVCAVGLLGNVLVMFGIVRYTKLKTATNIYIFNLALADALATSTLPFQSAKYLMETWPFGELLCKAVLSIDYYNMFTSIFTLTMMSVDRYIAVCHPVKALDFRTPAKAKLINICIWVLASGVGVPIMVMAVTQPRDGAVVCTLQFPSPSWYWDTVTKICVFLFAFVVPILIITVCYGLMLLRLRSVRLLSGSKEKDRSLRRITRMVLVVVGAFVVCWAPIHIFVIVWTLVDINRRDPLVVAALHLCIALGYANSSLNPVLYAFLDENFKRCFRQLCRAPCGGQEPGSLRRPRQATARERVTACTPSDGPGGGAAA
Chain of Mu-type opioid receptor (Rattus norvegicus, UniProt P33535) (P33535 whole entry): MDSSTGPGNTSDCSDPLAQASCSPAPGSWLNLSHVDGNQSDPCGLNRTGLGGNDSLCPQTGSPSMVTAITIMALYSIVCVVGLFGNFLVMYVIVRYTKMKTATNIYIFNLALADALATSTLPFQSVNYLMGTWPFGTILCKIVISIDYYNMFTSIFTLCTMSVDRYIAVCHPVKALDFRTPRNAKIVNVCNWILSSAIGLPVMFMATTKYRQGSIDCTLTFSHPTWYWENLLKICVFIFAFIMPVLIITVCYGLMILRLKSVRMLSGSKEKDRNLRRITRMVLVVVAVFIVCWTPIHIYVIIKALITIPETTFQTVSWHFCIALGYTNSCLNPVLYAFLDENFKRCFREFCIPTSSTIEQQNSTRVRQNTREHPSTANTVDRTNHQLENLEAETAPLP
Chain of Kappa-type opioid receptor (Homo sapiens) (P41145 whole entry): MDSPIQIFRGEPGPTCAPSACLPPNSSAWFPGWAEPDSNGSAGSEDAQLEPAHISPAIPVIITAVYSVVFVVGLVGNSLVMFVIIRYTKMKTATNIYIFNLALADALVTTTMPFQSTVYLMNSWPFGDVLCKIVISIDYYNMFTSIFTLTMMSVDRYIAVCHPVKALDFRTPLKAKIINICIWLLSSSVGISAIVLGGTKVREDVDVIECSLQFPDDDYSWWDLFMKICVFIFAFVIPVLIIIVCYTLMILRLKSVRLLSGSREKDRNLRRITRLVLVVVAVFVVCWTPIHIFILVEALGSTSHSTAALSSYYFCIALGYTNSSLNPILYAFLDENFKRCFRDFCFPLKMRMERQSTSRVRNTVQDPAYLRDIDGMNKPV
T1 sequence (P35372 whole entry): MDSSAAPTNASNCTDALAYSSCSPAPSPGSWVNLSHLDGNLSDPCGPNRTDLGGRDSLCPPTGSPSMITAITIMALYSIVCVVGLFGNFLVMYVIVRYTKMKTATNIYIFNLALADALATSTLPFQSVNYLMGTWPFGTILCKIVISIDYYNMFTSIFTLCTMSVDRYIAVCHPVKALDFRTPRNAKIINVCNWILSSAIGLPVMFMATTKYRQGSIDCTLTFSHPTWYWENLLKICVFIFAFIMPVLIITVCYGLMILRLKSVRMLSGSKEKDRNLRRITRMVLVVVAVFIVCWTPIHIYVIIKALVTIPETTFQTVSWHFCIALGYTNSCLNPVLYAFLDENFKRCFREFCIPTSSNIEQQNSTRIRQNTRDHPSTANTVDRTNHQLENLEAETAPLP
Chain of Delta-type opioid receptor (Homo sapiens) (P41143 whole entry): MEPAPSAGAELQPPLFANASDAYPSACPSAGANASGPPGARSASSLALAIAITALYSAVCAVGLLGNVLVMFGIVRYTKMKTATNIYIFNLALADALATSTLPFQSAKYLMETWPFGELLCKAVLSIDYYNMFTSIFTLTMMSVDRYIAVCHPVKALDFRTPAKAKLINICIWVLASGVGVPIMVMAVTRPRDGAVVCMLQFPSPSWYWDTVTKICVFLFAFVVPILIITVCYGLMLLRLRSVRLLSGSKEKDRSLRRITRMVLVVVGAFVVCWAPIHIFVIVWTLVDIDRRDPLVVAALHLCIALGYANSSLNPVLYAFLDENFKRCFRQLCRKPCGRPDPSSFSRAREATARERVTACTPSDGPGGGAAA

Row | SMILES | Ki (Mu-type opioid receptor [1]) [µM] | Ki [2] [µM] | Ratio Ki (Rattus norvegicus [3]) | Ratio Ki (Rattus norvegicus [4]) | IC50 (Ileum) [µM] | IC50 (Vas deferens) [µM] | EC50 (Mu-type opioid receptor [5]) [µM] | Emax (Mu-type opioid receptor [6]) [%] | Activity [7] | Activity [8] | half-life [9] [h] | half-life [10] [h] | Activity [21] | Time [23] [s] | Time [24] [s] | other results
1 | N=C(N)NCCC[C@@H](NC(=O)[C@@H](CCCNC(=N)N)NC(=O)CNC(=O)[C@@H]1CSSC[C@H](NC(=O)[C@@H](N)Cc2ccc(O)cc2)C(=O)N[C@@H](Cc2c[nH]c3ccccc23)C(=O)N[C@@H](Cc2ccccc2)C(=O)N1)C(=O)O | 0.0401 | > 10 | 249 | > 249 | 0.0702 | 0.0975 | 0.16 | 77.2 | inactive | inactive | 4.23 | 3.28 | – | – | – | –
2 | N=C(N)NCCC[C@@H](NC(=O)[C@@H](CCCNC(=N)N)NC(=O)CNC(=O)[C@@H]1CSSC[C@H](NC(=O)[C@@H](N)Cc2ccc(O)cc2)C(=O)N[C@@H](Cc2ccccc2)C(=O)N[C@@H](Cc2ccc(Cl)cc2)C(=O)N1)C(=O)O | 0.0672 | > 10 | > 149 | > 149 | 0.103 | 0.139 | 0.202 | 79.6 | inactive | inactive | 5.85 | 4.47 | – | – | – | –
3 | NC(=O)[C@H](Cc1ccccc1)NC(=O)[C@H](Cc1c[nH]c2ccccc12)NC(=O)[C@@H]1CCCN1C(=O)[C@@H](N)Cc1ccc(O)cc1 [ENDOMORPHIN-1] | – | – | – | – | 0.00873 | 0.0501 | – | – | – | – | – | – | Dose-Dependent Effect | 455 | 451 | Activity (Mus musculus [11]): Dose-Dependent Effect; Activity (Mus musculus [12]): Tde; Activity (Mus musculus [13]): inactive; Activity (Mus musculus [14]): inactive; Activity (Mus musculus [15]): inactive; Activity (Mus musculus [16]): inactive; Activity (Mus musculus [17]): Active; Activity (Mus musculus [18]): Active; Activity (Mus musculus [19]): inactive; Activity (Mus musculus [20]): Active; Activity ([22]; at 10 µmol/kg): 68.1%
4 | N=C(N)NCCC[C@@H](NC(=O)[C@@H](CCCNC(=N)N)NC(=O)CNC(=O)[C@@H]1CSSC[C@H](NC(=O)[C@@H](N)Cc2ccc(O)cc2)C(=O)N[C@@H](Cc2c[nH]c3ccccc23)C(=O)N[C@@H](Cc2ccc(Cl)cc2)C(=O)N1)C(=O)O | 0.0689 | > 10 | > 145 | > 145 | 0.0974 | 0.138 | 0.189 | 80.6 | inactive | inactive | 5.8 | 4.57 | – | – | – | –
5 | CN1CC[C@]23c4c5ccc(O)c4O[C@H]2[C@@H](O)C=C[C@H]3[C@H]1C5 [MORPHINE] | – | – | – | – | – | – | – | – | – | – | – | – | Dose-Dependent Effect | 451 | 447 | Activity (Mus musculus [25]): Active; MPE (Mus musculus [26]): 41.05%; Activity (Mus musculus [27]): Active; Activity (Mus musculus [28]): Active; Activity ([22]; dose 10 µmol/kg): Toxic; Activity [29]: Toxic; Activity [30]: Toxic
6 | N=C(N)NCCC[C@@H](NC(=O)[C@@H](CCCNC(=N)N)NC(=O)CNC(=O)[C@@H]1CSSC[C@H](NC(=O)[C@@H](N)Cc2ccc(O)cc2)C(=O)N[C@@H](Cc2ccccc2)C(=O)N[C@@H](Cc2ccccc2)C(=O)N1)C(=O)O | 0.0453 | > 10 | 221 | > 221 | 0.0746 | 0.107 | 0.154 | 79.7 | inactive | inactive | 4.12 | 3.6 | – | – | – | –
7 | NC(=O)[C@H](Cc1ccccc1)NC(=O)[C@H](Cc1ccccc1)NC(=O)[C@@H]1CCCN1C(=O)[C@@H](N)Cc1ccc(O)cc1 [ENDOMORPHIN 2] | – | – | – | – | 0.0113 | 0.0429 | – | – | – | – | 0.258 | 0.148 | Dose-Dependent Effect | 449 | 445 | Activity (Mus musculus [11]): Dose-Dependent Effect; ED50 (Mus musculus [11]): 6.4 nmol; Activity (Mus musculus [12]): Tde; Activity (Mus musculus [13]): inactive; Activity (Mus musculus [14]): inactive; Activity (Mus musculus [15]): inactive; Activity (Mus musculus [16]): inactive; Activity (Mus musculus [17]): inactive; Activity (Mus musculus [18]): inactive; Activity (Mus musculus [19]): inactive; ED50 (Mus musculus [31]): 6.4 nmol; ED50 (Mus musculus [32]): 20.6 nmol; Activity (Mus musculus [20]): Active; Activity ([22]; at 10 µmol/kg): 68.8%
